This experiment deals with recombinant NL4-3 virus (Renilla luciferase in nef, Gag P373S). Briefly: HIV cell culture assay (luciferase activity in MT-2 cells infected with NLRluc recombinant virus). Format: cell-based. In a few lines: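 Activity was read as luciferase output (Dual Luciferase reagents premixed with lysis solution) after 4–5 days of infection in serially diluted inhibitor. Host cells were MT-2 in 10% FBS RPMI. The reporter virus came from transfected 293T cells and was titered on MT-2.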

[1] abbreviates: NL43, MT-2 cells infected 4-5 days with NLRluc recombinant virus, class symbol.

This note sets out measurements from patent publication US8748415B2 (priority 2011, dated 2014).

pEC50: −log10 of the molar value. Where only a bound is given, the exact number is not on record here.

The term pEC50 denotes the negative decadic logarithm of the EC50, by convention in mol/L. Take `C=C(C)[C@@H]1CC[C@]2(CNC(=O)OCCCN3CCS(=O)(=O)CC3)CC[C@]3(C)[C@H](CC[C@@H]4[C@@]5(C)CC=C(c6ccc(C(=O)O)cc6)C(C)(C)[C@@H]5CC[C@]43C)[C@@H]12` [Example 164, 4-((1R,3aS,5aR,5bR,7aR,11aS,11bR,13aR,13bR)-3a-((((3-(1,1-dioxido-4-thiomorpholinyl)propoxy)carbonyl)amino)methyl)-1-isopropenyl-5a,5b,8,8,11a-pentamethyl-2,3,3a,4,5,5a,5b,6,7,7a,8,11,11a,11b,12,13,13a,13b-octadecahydro-1H-cyclopenta[a]chrysen-9-yl)benzoic acid]: the pEC50 under setting [1] is > 7.00.
Consider `C=C(C)[C@@H]1CC[C@]2(CNC(=O)OCCN3CCS(=O)(=O)CC3)CC[C@]3(C)[C@H](CC[C@@H]4[C@@]5(C)CC=C(c6ccc(C(=O)O)cc6)C(C)(C)[C@@H]5CC[C@]43C)[C@@H]12` [Example 165, 4-((1R,3aS,5aR,5bR,7aR,11aS,11bR,13aR,13bR)-3a-((((2-(1,1-dioxido-4-thiomorpholinyl)ethoxy)carbonyl)amino)methyl)-1-isopropenyl-5a,5b,8,8,11a-pentamethyl-2,3,3a,4,5,5a,5b,6,7,7a,8,11,11a,11b,12,13,13a,13b-octadecahydro-1H-cyclopenta[a]chrysen-9-yl)benzoic acid], for which, under setting [1], the negative logarithm of the EC50 (pEC50) is > 7.00.
The same measure, in the same setting: the result for `C=C(C)[C@@H]1CC[C@]2(CNC(=O)OCCCN3CCCC3=O)CC[C@]3(C)[C@H](CC[C@@H]4[C@@]5(C)CC=C(c6ccc(C(=O)O)cc6)C(C)(C)[C@@H]5CC[C@]43C)[C@@H]12` [Example 166, 4-((1R,3aS,5aR,5bR,7aR,11aS,11bR,13aR,13bR)-5a,5b,8,8,11a-pentamethyl-3a-(((3-(2-oxopyrrolidin-1-yl)propoxy)carbonylamino)methyl)-1-(prop-1-en-2-yl)-2,3,3a,4,5,5a,5b,6,7,7a,8,11,11a,11b,12,13,13a,13b-octadecahydro-1H-cyclopenta[a]chrysen-9-yl)benzoic acid] reads > 7.00; that for `C=C(C)[C@@H]1CC[C@]2(CNS(=O)(=O)c3ccc(C(=O)O)cc3)CC[C@]3(C)[C@H](CC[C@@H]4[C@@]5(C)CC=C(c6ccc(C(=O)O)cc6)C(C)(C)[C@@H]5CC[C@]43C)[C@@H]12` [Example 167, 4-(N—(((1R,3aS,5aR,5bR,7aR,11aS,11bR,13aR,13bR)-9-(4-carboxyphenyl)-5a,5b,8,8,11a-pentamethyl-1-(prop-1-en-2-yl)-2,3,3a,4,5,5a,5b,6,7,7a,8,11,11a,11b,12,13,13a,13b-octadecahydro-1H-cyclopenta[a]chrysen-3a-yl)methyl)sulfamoyl)benzoic acid], > 7.00.
Same read-out and setting: as for `C=C(C)[C@@H]1CC[C@]2(CN3CCS(=O)(=O)CC3)CC[C@]3(C)[C@H](CC[C@@H]4[C@@]5(C)CC=C(c6ccc(C(=O)O)cc6)C(C)(C)[C@@H]5CC[C@]43C)[C@@H]12` [Example 168, 4-((1R,3aS,5aR,5bR,7aR,11aS,11bR,13aR,13bR)-3a-((1,1-dioxido-4-thiomorpholinyl)methyl)-1-isopropenyl-5a,5b,8,8,11a-pentamethyl-2,3,3a,4,5,5a,5b,6,7,7a,8,11,11a,11b,12,13,13a,13b-octadecahydro-1H-cyclopenta[a]chrysen-9-yl)benzoic acid], the figure is > 7.00; as for `C=C(C)[C@@H]1CC[C@]2(CNC(=O)CCC(=O)O)CC[C@]3(C)[C@H](CC[C@@H]4[C@@]5(C)CC=C(c6ccc(C(=O)O)cc6)C(C)(C)[C@@H]5CC[C@]43C)[C@@H]12` [Example 169, 4-((1R,3aS,5aR,5bR,7aR,11aS,11bR,13aR,13bR)-3a-((3-carboxypropanamido)methyl)-5a,5b,8,8,11a-pentamethyl-1-(prop-1-en-2-yl)-2,3,3a,4,5,5a,5b,6,7,7a,8,11,11a,11b,12,13,13a,13b-octadecahydro-1H-cyclopenta[a]chrysen-9-yl)benzoic acid], > 7.00.
On to `C=C(C)[C@@H]1CC[C@]2(CNC(=O)CCC(=O)OC)CC[C@]3(C)[C@H](CC[C@@H]4[C@@]5(C)CC=C(c6ccc(C(=O)O)cc6)C(C)(C)[C@@H]5CC[C@]43C)[C@@H]12` [Example 170, 4-((1R,3aS,5aR,5bR,7aR,11aS,11bR,13aR,13bR)-3a-((4-methoxy-4-oxobutanamido)methyl)-5a,5b,8,8,11a-pentamethyl-1-(prop-1-en-2-yl)-2,3,3a,4,5,5a,5b,6,7,7a,8,11,11a,11b,12,13,13a,13b-octadecahydro-1H-cyclopenta[a]chrysen-9-yl)benzoic acid], for which the negative-log EC50 (pEC50) under setting [1] was > 7.00.
Regarding `C=C(C)[C@@H]1CC[C@]2(CNCCCN3CCS(=O)(=O)CC3)CC[C@]3(C)[C@H](CC[C@@H]4[C@@]5(C)CC=C(c6ccc(C(=O)NS(=O)(=O)N(C)C)cc6)C(C)(C)[C@@H]5CC[C@]43C)[C@@H]12` [Example 171, N-(dimethylsulfamoyl)-4-((1R,3aS,5aR,5bR,7aR,11aS,11bR,13aR,13bR)-3a-(((3-(1,1-dioxido-4-thiomorpholinyl)propyl)amino)methyl)-1-isopropenyl-5a,5b,8,8,11a-pentamethyl-2,3,3a,4,5,5a,5b,6,7,7a,8,11,11a,11b,12,13,13a,13b-octadecahydro-1H-cyclopenta[a]chrysen-9-yl)benzamide], the pEC50 under setting [1] is > 7.00.
Turning to `C=C(C)[C@@H]1CC[C@]2(CNCCCN3CCS(=O)(=O)CC3)CC[C@]3(C)[C@H](CC[C@@H]4[C@@]5(C)CC=C(c6ccc(C(=O)NS(=O)(=O)C7CC7)cc6)C(C)(C)[C@@H]5CC[C@]43C)[C@@H]12` [Example 172, benzamide, N-(cyclopropylsulfonyl)-4-((1R,3aS,5aR,5bR,7aR,11aS,11bR,13aR,13bR)-3a-(((3-(1,1-dioxido-4-thiomorpholinyl)propyl)amino)methyl)-1-isopropenyl-5a,5b,8,8,11a-pentamethyl-2,3,3a,4,5,5a,5b,6,7,7a,8,11,11a,11b,12,13,13a,13b-octadecahydro-1H-cyclopenta[a]chrysen-9-yl)benzamide], the pEC50 under setting [1] is > 7.00.
Same read-out and setting: as for `C=C(C)[C@@H]1CC[C@]2(CN(CCCN3CCS(=O)(=O)CC3)C(=O)CCC(=O)NS(=O)(=O)C3CC3)CC[C@]3(C)[C@H](CC[C@@H]4[C@@]5(C)CC=C(c6ccc(C(=O)O)cc6)C(C)(C)[C@@H]5CC[C@]43C)[C@@H]12` [Example 173, 4-((1R,3aS,5aR,5bR,7aR,11aS,11bR,13aR,13bR)-3a-(((4-((cyclopropylsulfonyl)amino)-4-oxobutanoyl)(3-(1,1-dioxido-4-thiomorpholinyl)propyl)amino)methyl)-1-isopropenyl-5a,5b,8,8,11a-pentamethyl-2,3,3a,4,5,5a,5b,6,7,7a,8,11,11a,11b,12,13,13a,13b-octadecahydro-1H-cyclopenta[a]chrysen-9-yl)benzoic acid], the figure is > 7.00; as for `C=C(C)[C@@H]1CC[C@]2(CN)CC[C@]3(C)[C@H](CC[C@@H]4[C@@]5(C)CC=C(c6ccc(C(=O)O)cc6)C(C)(C)[C@@H]5CC[C@]43C)[C@@H]12` [Example 174, 4-((1R,3aS,5aR,5bR,7aR,11aS,11bR,13aR,13bR)-3a-(aminomethyl)-5a,5b,8,8,11a-pentamethyl-1-(prop-1-en-2-yl)-2,3,3a,4,5,5a,5b,6,7,7a,8,11,11a,11b,12,13,13a,13b-octadecahydro-1H-cyclopenta[a]chrysen-9-yl)benzoic acid], > 7.00.
Still for that read-out and setting: the result for `C=C(C)[C@@H]1CC[C@]2(CNC(C)C)CC[C@]3(C)[C@H](CC[C@@H]4[C@@]5(C)CC=C(c6ccc(C(=O)O)cc6)C(C)(C)[C@@H]5CC[C@]43C)[C@@H]12` [Example 175, 4-((1R,3aS,5aR,5bR,7aR,11aS,11bR,13aR,13bR)-3a-((isopropylamino)methyl)-5a,5b,8,8,11a-pentamethyl-1-(prop-1-en-2-yl)-2,3,3a,4,5,5a,5b,6,7,7a,8,11,11a,11b,12,13,13a,13b-octadecahydro-1H-cyclopenta[a]chrysen-9-yl)benzoic acid] reads > 7.00.
For the compound `C=C(C)[C@@H]1CC[C@]2(CNCCC(=O)OC)CC[C@]3(C)[C@H](CC[C@@H]4[C@@]5(C)CC=C(c6ccc(C(=O)O)cc6)C(C)(C)[C@@H]5CC[C@]43C)[C@@H]12` [Example 176, 4-((1R,3aS,5aR,5bR,7aR,11aS,11bR,13aR,13bR)-3a-((3-methoxy-3-oxopropylamino)methyl)-5a,5b,8,8,11a-pentamethyl-1-(prop-1-en-2-yl)-2,3,3a,4,5,5a,5b,6,7,7a,8,11,11a,11b,12,13,13a,13b-octadecahydro-1H-cyclopenta[a]chrysen-9-yl)benzoic acid], where the note is “NL43, MT-2 cells infected 4-5 days with NLRluc recombinant virus, numeric value”, the negative logarithm of the EC50 (pEC50) was 7.85.
For `C=C(C)[C@@H]1CC[C@]2(CN3CC3)CC[C@]3(C)[C@H](CC[C@@H]4[C@@]5(C)CC=C(c6ccc(C(=O)O)cc6)C(C)(C)[C@@H]5CC[C@]43C)[C@@H]12` [Example 177, 4-((1R,3aS,5aR,5bR,7aR,11aS,11bR,13aR,13bR)-3a-(aziridin-1-ylmethyl)-5a,5b,8,8,11a-pentamethyl-1-(prop-1-en-2-yl)-2,3,3a,4,5,5a,5b,6,7,7a,8,11,11a,11b,12,13,13a,13b-octadecahydro-1H-cyclopenta[a]chrysen-9-yl)benzoic acid], where the note is “NL43”, the negative logarithm of the EC50 (pEC50) was > 7.00.
For the compound `C=C(C)[C@@H]1CC[C@]2(CNCCO)CC[C@]3(C)[C@H](CC[C@@H]4[C@@]5(C)CC=C(c6ccc(C(=O)O)cc6)C(C)(C)[C@@H]5CC[C@]43C)[C@@H]12` [Example 178, 4-((1R,3aS,5aR,5bR,7aR,11aS,11bR,13aR,13bR)-3a-((2-hydroxyethylamino)methyl)-5a,5b,8,8,11a-pentamethyl-1-(prop-1-en-2-yl)-2,3,3a,4,5,5a,5b,6,7,7a,8,11,11a,11b,12,13,13a,13b-octadecahydro-1H-cyclopenta[a]chrysen-9-yl)benzoic acid], the pEC50 under setting [1] is > 7.00.
